Molecular target: T1, chicken gizzard smooth muscle myosin subfragment-1 chemically crosslinked to cardiac or skeletal actin (Gallus gallus, UniProt P10587)
T1 construct: chicken gizzard smooth muscle myosin subfragment-1; from tissue; host or cells: chicken gizzard
Assay: Smooth muscle myosin ATPase dose response assay (pyruvate kinase/horseradish peroxidase/pyruvate oxidase-coupled, amplex red fluorescence)
Assay type: biochemical
Details: read-out: IC50 Arithmetic Mean
Method in brief: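 ATPase monitored by amplex red fluorescence (ex 480/em 615 nm) via pyruvate oxidase/HRP coupling, pH 7.00, ATP 0.15 mM. Enzyme: smooth muscle S1-actin crosslinked conjugate, amount set empirically by titration. Dose-response fitted with 4-parameter Hill equation for IC50.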

T1 sequence (P02607 2-151): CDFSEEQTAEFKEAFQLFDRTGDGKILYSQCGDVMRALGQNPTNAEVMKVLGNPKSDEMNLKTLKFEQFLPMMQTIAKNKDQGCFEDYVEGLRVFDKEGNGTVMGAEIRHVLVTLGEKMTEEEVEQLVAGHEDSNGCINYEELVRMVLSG
T1 sequence (P10587 84-789): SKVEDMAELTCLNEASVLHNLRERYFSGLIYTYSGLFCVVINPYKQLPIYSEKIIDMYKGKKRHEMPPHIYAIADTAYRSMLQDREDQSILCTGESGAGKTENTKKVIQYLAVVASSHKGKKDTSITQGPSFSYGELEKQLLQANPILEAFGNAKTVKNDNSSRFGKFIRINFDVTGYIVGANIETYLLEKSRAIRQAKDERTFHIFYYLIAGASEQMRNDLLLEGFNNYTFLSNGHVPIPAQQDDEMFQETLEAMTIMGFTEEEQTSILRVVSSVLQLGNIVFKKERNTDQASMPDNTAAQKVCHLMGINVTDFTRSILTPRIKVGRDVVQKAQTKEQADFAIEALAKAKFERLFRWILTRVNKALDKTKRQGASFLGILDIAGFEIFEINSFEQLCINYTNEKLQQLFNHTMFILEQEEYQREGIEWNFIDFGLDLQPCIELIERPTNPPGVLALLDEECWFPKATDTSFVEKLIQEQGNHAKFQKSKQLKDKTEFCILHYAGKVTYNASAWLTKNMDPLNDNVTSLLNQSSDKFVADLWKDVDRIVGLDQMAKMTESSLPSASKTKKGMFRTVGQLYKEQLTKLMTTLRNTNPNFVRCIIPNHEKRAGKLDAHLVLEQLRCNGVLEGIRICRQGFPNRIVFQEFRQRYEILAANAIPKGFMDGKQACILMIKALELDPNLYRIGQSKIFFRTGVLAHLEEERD

| IC50 [nM] | Structure (SMILES) |
| --- | --- |
| 10600 | O=C(NCc1cccnc1)c1ccc(-c2ccccc2)nc1NCCN1CCCC1=O [(2-{[2-(2-oxopyrrolidinyl)ethyl]amino}-6-phenyl(3-pyridyl))-N-(3-pyridylmethyl)carboxamide] |
| 28 | N#Cc1ccccc1-c1ccc(C(=O)NCc2cccnc2)c(NCCc2ccccc2Cl)n1 [(2-{[2-(2-chlorophenyl)ethyl]amino}-6-(2-cyanophenyl)(3-pyridyl))-N-(3-pyridylmethyl)carboxamide] |
| 1460 | C[C@@H](CNC(=O)c1ccc(-c2ccccc2C#N)nc1NCCc1cccc(F)c1)NC(=O)CN |
| 158 | Cc1cc(C(=O)NCc2cccnc2CN)c(NCCc2cccc(F)c2)nc1-c1ccccc1C#N [N-{[2-(aminomethyl)(3-pyridyl)]methyl}(6-(2-cyanophenyl)-2-{[2-(3-fluorophenyl)ethyl]amino}-5-methyl(3-pyridyl))carboxamide] |
| 193 | COC[C@H](N)C(=O)N1CCC[C@@H]1CNC(=O)c1ccc(-c2ccccc2C#N)nc1NCCc1cccc(F)c1 [N-{[(2R)-1-((2S)-2-amino-3-methoxypropanoyl)pyrrolidin-2-yl]methyl}(6-(2-cyanophenyl)-2-{[2-(3-fluorophenyl)ethyl]amino}(3-pyridyl))carboxamide] |
| 140 | NC(=O)CNC(=O)c1cc(F)c(-c2cn[nH]c2)nc1NCCc1cccc(F)c1 [N-(carbamoylmethyl)(5-fluoro-2-{[2-(3-fluorophenyl)ethyl]amino}-6-pyrazol-4-yl(3-pyridyl))carboxamide] |
| 55 | O=C(NCc1cccnc1)c1ccc(-c2ccccc2)nc1NCCc1cc(F)cc(F)c1 [(2-{[2-(3,5-difluorophenyl)ethyl]amino}-6-phenyl(3-pyridyl))-N-(3-pyridylmethyl)carboxamide] |
| 180 | O=C(NCC1CCNC1=O)c1ccc(-c2cn[nH]c2)nc1NCCc1cccc(F)c1 (stereo not shown) [(2-{[2-(3-fluorophenyl)ethyl]amino}-6-pyrazol-4-yl(3-pyridyl))-N-[(2-oxopyrrolidin-3-yl)methyl]carboxamide] |
| 8100 | COc1ccc(CNC(=O)c2ccc(-c3ccccc3C#N)nc2NCCc2cccc(F)c2)cn1 [(6-(2-cyanophenyl)-2-{[2-(3-fluorophenyl)ethyl]amino}(3-pyridyl))-N-[(6-methoxy(3-pyridyl))methyl]carboxamide] |
| 40 | Cn1cc(-c2ccc(C(=O)NCc3cccnc3)c(NCCc3cccc(F)c3)n2)cn1 |
| 47 | NCCCC(=O)N1CCC[C@@H]1CNC(=O)c1cc(F)c(-c2cn[nH]c2)nc1NCCc1cccc(F)c1 [N-{[(2R)-1-(4-aminobutanoyl)pyrrolidin-2-yl]methyl}(5-fluoro-2-{[2-(3-fluorophenyl)ethyl]amino}-6-pyrazol-4-yl(3-pyridyl))carboxamide] |
| 463 | O=C(NCc1ccccn1)c1ccc(-c2ccccc2)nc1NCCc1ccccn1 [{6-phenyl-2-[(2-(2-pyridyl)ethyl)amino](3-pyridyl)}-N-(2-pyridylmethyl)carboxamide] |
| 48 | N#Cc1ccccc1-c1ccc(C(=O)NC[C@H]2CCCCN2C(=O)[C@@H](N)CCCN)c(NCCc2cccc(F)c2)n1 [N-{[(2R)-1-((2S)-2,5-diaminopentanoyl)(2-piperidyl)]methyl}(6-(2-cyanophenyl)-2-{[2-(3-fluorophenyl)ethyl]amino}(3-pyridyl))carboxamide] |
| 17900 | N#Cc1ccccc1-c1ccc(C(=O)NCCN2C(=O)CC[C@H]2CN)c(NCCc2cccc(F)c2)n1 [N-{2-[(5S)-5-(aminomethyl)-2-oxopyrrolidinyl]ethyl}(6-(2-cyanophenyl)-2-{[2-(3-fluorophenyl)ethyl]amino}(3-pyridyl))carboxamide] |
| 6410 | CC(C)(C)OC(=O)N1CCC[C@@H]1CNC(=O)c1cc(C#N)c(-c2cn[nH]c2)nc1NCCc1cccc(F)c1 [tert-butyl (2R)-2-{[(5-cyano-2-{[2-(3-fluorophenyl)ethyl]amino}-6-pyrazol-4-yl(3-pyridyl))carbonylamino]methyl}pyrrolidinecarboxylate] |
| 33 | N#Cc1sccc1-c1ccc(C(=O)NCc2cccnc2)c(NCCc2cccc(F)c2)n1 [(6-(2-cyano(3-thienyl))-2-{[2-(3-fluorophenyl)ethyl]amino}(3-pyridyl))-N-(3-pyridylmethyl)carboxamide] |
| 1330 | C[C@H](CNC(=O)c1ccc(-c2ccccc2C#N)nc1NCCc1cccc(F)c1)NS(C)(=O)=O [N-{(2R)-2-[(methylsulfonyl)amino]propyl}(6-(2-cyanophenyl)-2-{[2-(3-fluorophenyl)ethyl]amino}(3-pyridyl))carboxamide] |
| 6830 | Cc1cc(C)n(CCNc2nc(-c3ccccc3)ccc2C(=O)NCc2cccnc2)n1 [(2-{[2-(3,5-dimethylpyrazolyl)ethyl]amino}-6-phenyl(3-pyridyl))-N-(3-pyridylmethyl)carboxamide] |
| 215 | O=C(NCC(CO)CO)c1cc(F)c(-c2cn[nH]c2)nc1NCCc1cccc(F)c1 [(5-fluoro-2-{[2-(3-fluorophenyl)ethyl]amino}-6-pyrazol-4-yl(3-pyridyl))-N-[3-hydroxy-2-(hydroxymethyl)propyl]carboxamide] |

| Structure (SMILES) | IC50 [nM] |
| --- | --- |
| Cn1cc(-c2nc(NCCc3cccc(F)c3)c(C(=O)NCc3cccnc3CNC(=O)OC(C)(C)C)cc2Cl)cn1 [N-[(2-{[(tert-butoxy)carbonylamino]methyl}(3-pyridyl))methyl](5-chloro-2-{[2-(3-fluorophenyl)ethyl]amino}-6-(1-methylpyrazol-4-yl)(3-pyridyl))carboxamide] | 414 |
| CC(C)(C)OC(=O)NCc1ncccc1CNC(=O)c1cc(F)c(-c2cn[nH]c2)nc1NCCc1cccc(F)c1 [N-[(2-{[(tert-butoxy)carbonylamino]methyl}(3-pyridyl))methyl](5-fluoro-2-{[2-(3-fluorophenyl)ethyl]amino}-6-pyrazol-4-yl(3-pyridyl))carboxamide] | 488 |
| CC(C)(C)OC(=O)NCc1ncccc1CNC(=O)c1cc(F)c(-c2ccccc2C#N)nc1NCCc1cccc(F)c1 [N-[(2-{[(tert-butoxy)carbonylamino]methyl}(3-pyridyl))methyl](6-(2-cyanophenyl)-5-fluoro-2-{[2-(3-fluorophenyl)ethyl]amino}(3-pyridyl))carboxamide] | 5360 |
| Cn1cc(-c2nc(NCCc3cccc(F)c3)c(C(=O)NC[C@H]3CCCN3C(=O)[C@H](CCCNC(=O)OC(C)(C)C)NC(=O)OC(C)(C)C)cc2F)cn1 [N-[((2R)-1-{(2S)-2,5-bis[(tert-butoxy)carbonylamino]pentanoyl}pyrrolidin-2-yl)methyl](5-fluoro-2-{[2-(3-fluorophenyl)ethyl]amino}-6-(1-methylpyrazol-4-yl)(3-pyridyl))carboxamide] | 19600 |
| COP(=O)(OC)OCC(=O)N1CC[C@@H]1CNC(=O)c1cc(F)c(-c2cnn(C)c2)nc1NCCc1cccc(F)c1 [2-((2R)-2-{[(5-fluoro-2-{[2-(3-fluorophenyl)ethyl]amino}-6-(1-methylpyrazol-4-yl)(3-pyridyl))carbonylamino]methyl}azetidinyl)-2-oxoethyl dimethyl phosphate] | 400 |
| Cc1cc(C(=O)NC[C@H]2CCCN2C(=O)CCCNC(=O)OC(C)(C)C)c(NCCc2cccc(F)c2)nc1-c1cnn(C)c1 [N-[((2R)-1-{4-[(tert-butoxy)carbonylamino]butanoyl}pyrrolidin-2-yl)methyl](2-{[2-(3-fluorophenyl)ethyl]amino}-5-methyl-6-(1-methylpyrazol-4-yl)(3-pyridyl))carboxamide] | 2260 |
